Measured values taken from article PMC9229798, “Antioxidant Activity and Cytotoxicity of Aromatic Oligosulfides” (Molecules, 2022).
Values joined by “and” are separate entries in the source; they are usually repeats but may differ in a detail not shown here. Equal values may be shown once.

Tested on: SOD
Test: SOD-protective activity, cytosolic fraction of liver homogenate
Type: biochemical, Russian sturgeon
Conditions: adrenaline oxidation with biopreparation, compound initial 25 µM
Text: Superoxide dismutase (SOD) is present in almost all aerobic cells and extracellular fluids and is able to inhibit the accumulation of adrenochrome by intercepting O2^–•. The process of splitting O2^–• by SOD into O2 and H2O2 occurs in the body, which is facilitated by the presence of metal ions Cu, Zn, Mn and Fe, playing an important role in lipid peroxidation. […] This system is also suitable for determining the activity of the endogenous enzyme–antioxidant SOD responsible for the utilization of O2^–• [43, 44]. The reaction sequence of adrenaline autoxidation with the adrenochrome formation was described earlier.
SOD-protective activity of the biopreparation was the ability to utilize the superoxide anion radical O2^–•, as determined by the method of Sirota. A cytosolic fraction of the Russian sturgeon liver homogenate was used as the source of SOD. First, the sturgeon liver was washed with cold 0.2 M Tris (tris (hydroxymethyl) aminomethane) buffer (pH 7.8) to remove any traces of blood. All of the procedures were performed at a temperature of 0–4 °C. Next, a homogenate was obtained using a Potter homogenizer (Thomas Scientifc, Swedesboro, NJ, USA) in 0.2 M Tris buffer at a ratio of 1:10. The homogenate was then centrifuged for 10 min at 1000× g to remove partially destroyed cells and nuclei. The resulting supernatant contained the enzymes of the cytosolic fraction of the liver homogenate, including the SOD. Here, 10 µL of the biopreparation was added to a cuvette with 200 µL of bicarbonate buffer (pH 10.65), 10 µL of the tested compound (initial concentrations of these compounds 25 µM) and 10 µL of 0.1% adrenaline solution and was thoroughly and quickly mixed. The rate of adrenaline oxidation without and in the presence of the biopreparation was evaluated by the change in optical density, measured at 347 nm for 3 min. The decrease in the rate of the process in the presence of the biopreparation was used to characterize the SOD-protective activity.

Structure (SMILES)	SOD Activity of Liver Sturgeon, % Inhibition [%]
c1ccc(SSSc2ccccc2)cc1 [Compound 1, diphenyl trisulfide]	41 ± 2.7
COc1ccccc1SSc1ccccc1OC [Compound 2, bis(2-methoxyphenyl) disulfide]	60 ± 3.3
Oc1ccc(SSc2ccc(O)cc2)cc1 [Compound 4, 4,4′-dihydroxydiphenyl disulfide]	75 ± 5.6

Tested on: not listed separately
Test: CUPRAC assay (cupric reducing antioxidant capacity)
Conditions: Trolox equivalents; compound 0.5 mM, 30 min
Experimental: Antioxidant activity can be evaluated by the CUPRAC test (cupric reducing antioxidant capacity) based on the ability of the compound to reduce Cu^2+ in complex with 2,9-dimethyl-1,10-phenanthroline (neocuproin). The antioxidant capacity of compounds 1–6 in the CUPRAC test was measured in equivalents of the water-soluble analogue of vitamin E—Trolox (TEACCUPRAC) (Table 2). […] The TEACCUPRAC values of disulfides 4 and 6 were quite close and indicated the manifestation of antioxidant activity mainly due to the presence of HO-groups. The slightly lower activity of compound 4 was explained by the absence of tert-butyl groups in its structure.
Neocuproine (2,9-dimethyl-1,10-phenanthroline) and Trolox were used with no further purification. The method proposed by Apak et al. was used with slight modification. For these measurements, 0.05 mL of CuCl2 solution (0.01 M), 0.05 mL of MeOH neocuproine solution (7.5 mM) and 0.05 mL of ammonium acetate buffer solution (1 M) were added to a test tube, followed by mixing with the 0.05 mL tested compounds (0.5 mM). The mixtures were kept at room temperature for 30 min. Absorbance was measured at 450 nm against a reagent blank. The results were presented in Trolox equivalents (Trolox equivalent antioxidant capacity, TEAC) obtained using absorbance data, and the linear calibration curve was plotted as absorbance vs. Trolox concentration.

Structure (SMILES)	TEAC CUPRAC
c1ccc(SSSc2ccccc2)cc1 [Compound 1, diphenyl trisulfide]	non active
COc1ccccc1SSc1ccccc1OC [Compound 2, bis(2-methoxyphenyl) disulfide]	non active
COc1ccc(SSc2ccc(OC)c(OC)c2)cc1OC [Compound 3, bis(3,4-dimethoxyphenyl) disulfide]	0.06 ± 0.01
Oc1ccc(SSc2ccc(O)cc2)cc1 [Compound 4, 4,4′-dihydroxydiphenyl disulfide]	1.8 and 1.80 ± 0.06

Tested on: not listed separately
Test: FRAP assay (ferric reducing antioxidant power)
Conditions: Trolox equivalents
Experimental: The assessment of antioxidant activity was also carried out by the FRAP (Ferric Reduction Aantioxidant Power) method based on electron transfer similar to the CUPRAC method, while in the DPPH test, the reaction proceeded according to the HAT mechanism. Antioxidant activity of compounds 1–6 was also calculated in Trolox equivalents (TEACFRAP). […] The lowest activity was obtained for trisulfide 1 and disulfide 5, which are characterized by the absence of functional groups in the benzene ring. The TEACFRAP values for disulfide 2 with a methoxy group and compounds 4 and 6 with a phenolic fragment differed insignificantly and amounted to 0.58 and 0.69 Trolox equivalents.
The sample solution (0.1 mL) was mixed with 0.1 mL phosphate buffer (0.2 M, pH 6.6) and 0.1 mL potassium ferricyanide (1%). For each test compound different concentrations in EtOH were used (5, 10, 25, 50, 100, 200 and 250 μM). The resulting mixture was incubated at 50 °C for 20 min. After the incubation period, 0.1 mL trichloroacetic acid (10%), 0.5 mL deionized water, and 0.1 mL ferric chloride (0.1%) were added to the mixture. The sample absorbance was read at 700 nm with a 96-cell microplate spectrophotometer. The reduction of Fe (III) to Fe (II) could be expressed as % inhibition or equivalent of a standard compound (e.g., Trolox).

Structure (SMILES)	TEAC FRAP
c1ccc(SSSc2ccccc2)cc1 [Compound 1, diphenyl trisulfide]	0.06 ± 0.01
COc1ccccc1SSc1ccccc1OC [Compound 2, bis(2-methoxyphenyl) disulfide]	0.58 and 0.58 ± 0.05
Oc1ccc(SSc2ccc(O)cc2)cc1 [Compound 4, 4,4′-dihydroxydiphenyl disulfide]	0.69 and 0.69 ± 0.07
c1ccc(SSc2ccccc2)cc1 [Compound 5, diphenyl disulfide]	0.06 ± 0.05
CC(C)(C)c1cc(SSc2cc(C(C)(C)C)c(O)c(C(C)(C)C)c2)cc(C(C)(C)C)c1O [Compound 6, bis(3,5-di-tert-butyl-4-hydroxyphenyl) disulfide]	0.69 and 0.69 ± 0.02

Tested on: not listed separately
Test: TBARS accumulation in oleic acid oxidation
Conditions: 1 mmol/L additive, 65 °C, 3 h
Experimental: The total antioxidant activity of compounds 1–6 during the oxidation of oleic acid with atmospheric oxygen at 65 °C for 3 h was determined by standard methods according to the level of accumulation of the main metabolites. Hydroperoxides as primary products (LOOH) and secondary LPO carbonyl products formed colored complexes with thiobarbituric acid (TBARS).
The kinetics of LOOH and TBARS formation was similar in the control test and in the presence of the studied compounds. The exponential kinetic curves of LOOH accumulation in oleic acid corresponded to the equation CLOOH = a × e^kt with correlation coefficients close to 1. It indicated a pseudo-first order of reaction in the substrate, inherent in a radical process with degenerate chain branching (Figure 2). The kinetic curves of secondary carbonyl products were linear and corresponded to the equation CTBARS = kt + b, with correlation coefficients close to 1 (Figure 3).
The accumulation rate for the final oxidation products (TBARS) was determined according to a modified standard method. Samples (0.01 mL) of oleic acid were taken from the thermostat every 30 min. They were introduced into a test tube containing a mixture of Tris buffer (0.8 mL), distilled water (1.2 mL), and freshly prepared thiobarbituric acid solution (0.8%, 1 mL). The tube was placed for 10 min in a boiling water bath, and after cooling, the absorption of the samples was measured in comparison with that of the control at λ = 532 nm. A similar mixture, but without added oleic acid, was used as the control. The concentration of carbonyl compounds was calculated according to the formula:
[TBARS] = (E × 3)/0.156, where [TBARS] is the content of carbonyl compounds, nM; E is the extinction of a sample relative to the control; 3 is the sample volume, mL; and 0.156 is the extinction of malondialdehyde (1 nmol) dissolved in 1 mL at λ = 532 nm.

Structure (SMILES)	TBARS, % Inhibition [%]
c1ccc(SSSc2ccccc2)cc1 [Compound 1, diphenyl trisulfide]	21.0 ± 0.18
COc1ccccc1SSc1ccccc1OC [Compound 2, bis(2-methoxyphenyl) disulfide]	42.9 ± 0.76
Oc1ccc(SSc2ccc(O)cc2)cc1 [Compound 4, 4,4′-dihydroxydiphenyl disulfide]	39.0 ± 0.49

Tested on: not listed separately
Test: Antiradical activity, quinoid oxidation (autoxidation) of adrenaline
Conditions: adrenaline autoxidation in alkaline buffer, compound initial 25 µM

Structure (SMILES)	Antiradical Activity, % Inhibition [%]
c1ccc(SSSc2ccccc2)cc1 [Compound 1, diphenyl trisulfide]	30 ± 1.9
COc1ccccc1SSc1ccccc1OC [Compound 2, bis(2-methoxyphenyl) disulfide]	50 ± 3.1
Oc1ccc(SSc2ccc(O)cc2)cc1 [Compound 4, 4,4′-dihydroxydiphenyl disulfide]	36 ± 2.3
